One assay has as its system SCPJU. The experiment in a line: Example II in-water applied, greenhouse, transplanted paddy rice weeds. The format is in vivo, Schoenoplectus juncoides (Roxb.) Palla. The method, then: (§1) Weed seeds or nutlets of the desired test plant species were planted in puddled soil (mud) prepared by mixing a shredded, non-sterilized mineral soil (50.5 percent silt, 25.5 percent clay, and 24 percent sand, with a pH of about 7.6 and an organic matter content of about 2.9 percent) and water at a 1:1 volumetric ratio. The prepared mud was dispensed in 365 mL aliquots into 16-ounce (oz.) non-perforated plastic pots with a surface area of 86.59 square centimeters (cm^2) leaving a headspace of 3 centimeters (cm) in each pot. Mud was allowed to dry overnight prior to planting or transplanting. Rice seeds were planted in Sun Gro MetroMix® 306 planting mixture, which typically has a pH of 6.0 to 6.8 and an organic matter content of about 30 percent, in plastic plug trays. Seedlings at the second or third leaf stage of growth were transplanted into 860 mL of mud contained in 32-oz. non-perforated plastic pots with a surface area of 86.59 cm^2 4 days prior to herbicide application. The paddy was created by filling the headspace of the pots with 2.5 to 3 cm of water. […] The plants were grown for 4-22 days in a greenhouse with an approximate 14 hr. photoperiod which was maintained at about 29° C. during the day and 26° C. during the night. Nutrients were added as Osmocote® (19:6:12, N:P:K+minor nutrients) at 2 g per 16-oz. pot and 4 g per 32-oz. pot. Water was added on a regular basis to maintain the paddy flood, and supplemental lighting was provided with overhead metal halide 1000-Watt lamps as necessary. The plants were employed for testing when they reached the first through fourth true leaf stage.
(§2) Treatments consisted of the acid or esters of 4-amino-3-chloro-5-fluoro-6-(4-chloro-2-fluoro-3-methoxy-phenyl)pyridine-2-carboxylic acid (compound A) each formulated as an SC (suspension concentrate) and various herbicidal components alone and in combination.
(§3) For formulated compounds, a measured amount was placed in an individual 100 or 200 mL glass vial and was dissolved in a volume of 1.25% (v/v) Agri-Dex® crop oil concentrate to obtain application solutions.
(§4) Applications were made by injecting with a pipetter appropriate amounts of the application solutions, individually and sequentially, into the aqueous layer of the paddy. Control plants were treated in the same manner with the solvent blank. Applications were made so that all treated plant material received the same concentrations of acetone and crop oil concentrate.
(§5) The treated plants and control plants were placed in a greenhouse as described above and water was added as needed to maintain a paddy flood. After approximately 3 weeks the condition of the test plants as compared with that of the untreated plants was determined visually and scored on a scale of 0 to 100 percent where 0 corresponds to no injury or growth inhibition and 100 corresponds to complete kill.
(§6) Colby's equation was used to determine the herbicidal effects expected from the mixtures (Colby, S. R. 1967. Calculation of the synergistic and antagonistic response of herbicide combinations. Weeds 15:20-22.).
(§7) The following equation was used to calculate the expected activity of mixtures containing two active ingredients, A and B: Expected=A+B−(A×B/100)

In a further assay the test system is LEFCH. The description is as above. The format is in vivo, Leptochloa chinensis (L.) Nees. The procedure: as §1, §2, §3, §4, §5, §6, §7
In the next assay the test system is SCPMA. Described as above. The format is in vivo, Schoenoplectus maritimus (L.) Lye. The procedure: as §1, §2, §3, §4, §5, §6, §7
Another assay has as its system AVEFA. The experiment in a line: Example III postemergence foliar-applied, greenhouse, weeds common to row crops such as corn and soybeans. Format: in vivo, Avena fatua L.
Description: Seeds or nutlets of the desired test plant species were planted in a soil matrix prepared by mixing a loam or sandy loam soil (e.g., 28.6 percent silt, 18.8 percent clay, and 52.6 percent sand, with a pH of about 5.8 and an organic matter content of about 1.8 percent) and calcareous grit in an 80 to 20 ratio. The soil matrix was contained in plastic pots with a surface area of 84.6 square centimeters (cm^2) and a volume of 560 cubic centimeters (cm^3). When required to ensure good germination and healthy plants, a fungicide treatment and/or other chemical or physical treatment was applied. The plants were grown for 7-31 days (d) in a greenhouse with an approximate 15 hour (h) photoperiod which was maintained at about 23-29° C. during the day and 22-28° C. during the night. Nutrients (Peters Excel® 15-5-15 5-Ca 2-Mg) and water were added on a regular basis and supplemental lighting was provided with overhead metal halide 1000-Watt lamps as necessary. The plants were employed for testing when they reached the first, second, or third true leaf stage.
Treatment requirements were calculated based upon the rates being tested, the concentration of active ingredient or acid equivalent in the formulation, and a 12 mL application volume at a rate of 187 L/ha.
Treatments consisted of the acid or esters of 4-amino-3-chloro-5-fluoro-6-(4-chloro-2-fluoro-3-methoxy-phenyl)pyridine-2-carboxylic acid (Compound A), each formulated as an SC (suspension concentrate), and various herbicidal components alone and in combination.
Other herbicidal components were applied on an acid equivalent basis and included acetyl coA carboxylase (ACCase)-inhibiting herbicide (cyclohexanedione and aryloxyphenoxypropionate chemical classes) quizalofop-p-ethyl formulated as Assure® II.
All stock solutions and applications solutions were visually inspected for compound compatibility prior to application. Compound requirements are based upon a 12 mL application volume at a rate of 187 liters per hectare (L/ha). Formulated compounds were applied to the plant material with an overhead Mandel track sprayer equipped with 8002E nozzles calibrated to deliver 187 L/ha over an application area of 0.503 square meters (m^2) at a spray height of 18 to 20 inches (46 to 50 cm) above the average plant canopy height. Control plants were sprayed in the same manner with the solvent blank.
The treated plants and control plants were placed in a greenhouse as described above and watered by sub-irrigation to prevent wash-off of the test compounds. After approximately 2 weeks, the condition of the test plants as compared with that of the untreated plants was determined visually and scored on a scale of 0 to 100 percent where 0 corresponds to no injury or growth inhibition and 100 corresponds to complete kill.
as §6, §7

In another assay the test system is CYPRO. Kind of assay: Example II in-water applied, greenhouse, transplanted paddy rice weeds. Format: in vivo, Cyperus rotundus L. The procedure: as §1, §2, §3, §4, §5, §6, §7
The next assay relates to CYPIR. The experiment in a line: Example V (second) postemergence foliar-applied ternary mixtures, greenhouse, direct seeded rice weeds. The format is in vivo, Cyperus iria L. The method, then:
The treated plants and control plants were placed in a greenhouse as described above and watered by sub-irrigation to prevent wash-off of the test compounds. After approximately 3 weeks, the condition of the test plants as compared with that of the untreated plants was determined visually and scored on a scale of 0 to 100 percent where 0 corresponds to no injury or growth inhibition and 100 corresponds to complete kill.
as §6
The following equation was used to calculate the expected activity of mixtures containing three active ingredients, A, B, and C: Expected=A+B+C−((A×B+A×C+B×C)/100)+(A×B×C/10000)

As to `COc1c(Cl)ccc(-c2nc(C(=O)O)c(Cl)c(N)c2F)c1F` [Compound A Acid, 4-amino-3-chloro-6-(4-chloro-2-fluoro-3-methoxyphenyl)-5-fluoropyridine-2-carboxylic acid], the “Visual Weed Control (%) - 25 DAA SCPJU Obs” value with SCPJU (8.75 gae/ha in-water) amounted to 65%; in the assay on SCPJU (17.5 gae/ha in-water), 80%; in the assay with SCPJU (35 gae/ha in-water) it was 95%. The “Visual Weed Control (%) - 20 DAA SCPJU Obs” value with SCPJU (in-water, 8.75 gae/ha) was determined as 70%; in the assay on SCPJU (in-water, 17.5 gae/ha) it was 95%; in the assay with SCPJU (in-water, 35 gae/ha), 95%. Also, the “Visual Weed Control (%) - 21 DAA SCPJU Obs” value in the assay on SCPJU (in-water, 8.75 gae/ha) is recorded as 65%; in the assay with SCPJU (in-water, 17.5 gae/ha), 90%. For the same compound, in the assay with SCPJU (in-water, 16 gae/ha), the “Visual Weed Control (%) - 22 DAA SCPJU Obs” value is on record as 70%. Further, the “Visual Weed Control (%) - 19 DAA LEFCH Obs” value with LEFCH (42.4 gae/ha in-water) is listed as 10%. Besides, the “Visual Weed Control (%) - 21 DAA LEFCH Obs” value in the assay on LEFCH (in-water, 17.5 gae/ha) is on record as 0%; in the assay with LEFCH (in-water, 35 gae/ha), 20%. In the assay with SCPMA (35 gae/ha), the “Visual Weed Control (%) - 21 DAA SCPMA Obs” value is 0%. In addition, the “Visual Weed Control (%) - 14 DAA AVEFA Obs” value in the assay with AVEFA (Compound A Acid 3.75 gae/ha), in the assay on AVEFA (Compound A Acid 7.5 gae/ha) and with AVEFA (Compound A Acid 15 gae/ha) was 0% each time. The “Visual Weed Control (%) - 21 DAA CYPRO Obs” value in the assay with CYPRO (8.75 gae/ha) was determined as 0%; in the assay with CYPRO (Compound A Acid 8.75 gae/ha), 0%; with CYPRO (Compound A Acid 17.5 gae/ha) it was 30%; in the assay with CYPRO (Compound A Acid 35 gae/ha) it was 85%.
Regarding `COc1c(Cl)ccc(-c2nc(C(=O)OCc3ccccc3)c(Cl)c(N)c2F)c1F` [Compound A Benzyl Ester, benzyl ester of 4-amino-3-chloro-5-fluoro-6-(4-chloro-2-fluoro-3-methoxy-phenyl)pyridine-2-carboxylic acid], the “Visual Weed Control (%) - 21 DAA SCPJU Obs” value in the assay with SCPJU (in-water, 4.38 gae/ha) came to 70%. In the assay with SCPMA (35 gae/ha), the “Visual Weed Control (%) - 19 DAA SCPMA Obs” value is 0%. Moreover, the “Visual Weed Control (%) - 21 DAA CYPIR Obs” value with CYPIR (8 gae/ha) came out at 53%; in the assay with CYPIR (16 gae/ha), 95%. Further, the “Visual Weed Control (%) - 22 DAA CYPIR Obs” value in the assay on CYPIR (8 gae/ha) was determined as 37%. Moreover, the “Visual Weed Control (%) - 14 DAA AVEFA Obs” value in the assay on AVEFA (Compound A Benzyl Ester 3.75 gae/ha) is 10%; in the assay on AVEFA (Compound A Benzyl Ester 7.5 gae/ha) it was 0%; in the assay on AVEFA (Compound A Benzyl Ester 15 gae/ha), 10%. The figures for the “Visual Weed Control (%) - 20 DAA CYPRO Obs” value with CYPRO (4.38 gae/ha), in the assay on CYPRO (8.75 gae/ha) and in the assay with CYPRO (17.5 gae/ha) were 50%, 100% and 100%, respectively. Further, the “Visual Weed Control (%) - 21 DAA CYPRO Obs” value with CYPRO (4.38 gae/ha) is reported as 20%.
With `CCCCOC(=O)[C@@H](C)Oc1ccc(Oc2ccc(C#N)cc2F)cc1` [Cyhalofop-butyl, butyl(2R)-2-[4-(4-cyano-2-fluorophenoxy)phenoxy]propanoate, reference compound], the “Visual Weed Control (%) - 25 DAA SCPJU Obs” value is 0% with SCPJU (90 gai/ha, in-water) and 0% in the assay with SCPJU (180 gai/ha, in-water). Moreover, the “Visual Weed Control (%) - 19 DAA LEFCH Obs” value in the assay on LEFCH (180 gai/ha, in-water) was determined as 75%. Further, the “Visual Weed Control (%) - 19 DAA SCPMA Obs” value in the assay with SCPMA (180 gai/ha) is 0%. Further, the “Visual Weed Control (%) - 21 DAA CYPIR Obs” value with CYPIR (35 gai/ha) worked out at 0%.
As for `C[C@@H](Oc1ccc(Oc2nc3ccc(Cl)cc3o2)cc1)C(=O)N(C)c1ccccc1F` [Metamifop, (2R)-2-[4-[(6-chloro-2-benzoxazolyl)oxy]phenoxy]-N-(2-fluorophenyl)-N-methylpropanamide], the “Visual Weed Control (%) - 21 DAA SCPJU Obs” value with SCPJU (in-water, 75 gai/ha) is reported as 0%; in the assay with SCPJU (in-water, 150 gai/ha) it was 0%. Further, the “Visual Weed Control (%) - 21 DAA SCPMA Obs” value in the assay on SCPMA (75 gai/ha) and in the assay with SCPMA (150 gai/ha) was 0% in each case.
With `CCC/C(=N\OCC(C)Oc1ccc(Cl)cc1)C1=C(O)CC(C2CCCSC2)CC1=O` (stereo not shown) [Profoxydim, 2-[1-[[2-(4-chlorophenoxy)propoxy]imino]butyl]-3-hydroxy-5-(tetrahydro-2H-thiopyran-3-yl)-2-cyclohexen-1-one, reference compound], the “Visual Weed Control (%) - 22 DAA SCPJU Obs” value in the assay on SCPJU (in-water, 50 gai/ha) came to 0%; with SCPJU (in-water, 100 gai/ha) it was 0%. In the assay with LEFCH (in-water, 25 gai/ha), the “Visual Weed Control (%) - 21 DAA LEFCH Obs” value is 85%. Also, the “Visual Weed Control (%) - 22 DAA CYPIR Obs” value in the assay on CYPIR (3.12 gai/ha) and in the assay on CYPIR (6.25 gai/ha) was 0% throughout.
Turning to `CCOC(=O)[C@@H](C)Oc1ccc(Oc2cnc3cc(Cl)ccc3n2)cc1` [Quizalofop-p-ethyl, ethyl(2R)-2-[4-[(6-chloro-2-quinoxalinyl)oxy]phenoxy]propanoate, reference compound], in the assay with AVEFA (Quizalofop-p-ethyl 14.25 gae/ha), the “Visual Weed Control (%) - 14 DAA AVEFA Obs” value is reported as 40%. For the same compound, the “Visual Weed Control (%) - 21 DAA CYPRO Obs” value in the assay with CYPRO (15 gai/ha) and in the assay with CYPRO (30 gai/ha) was 0% throughout.

Source of the values: US9232796B2, “Herbicidal compositions comprising 4-amino-3-chloro-5-fluoro-6-(4-chloro-2-fluoro-3-methoxyphenyl) pyridine-2-carboxylic acid or a derivative thereof and acetyl-CoA carboxylase (ACCase) inhibitors” (DOW AGROSCIENCES LLC, priority 2012, dated 2016).
